What was measured:
Test in all cases: cell count proliferation assay
Format in all cases: cell-based, mouse
Set-up in all cases: key: +: A positive scoring in these Tables represent cells in which a 2-5 and a 10-40 fold reduction in the total number of cells relative to the control untreated cells was observed after 3 and 7 days of culture with F16, respectively
[1] = test system: AC816; conditions: AC816, Ras, breast; F16 3 μM, cells counted after 3 and 7 days
Source text: (§1) The following panel of mouse tumor cell lines derived from Neu, Ras and Myc transgenic mice and panel of human cancer cell lines were used: a) Neu-initiated mouse tumor cell lines NF980, NF324-2A, NF324-1B, SMF, NAF, Neu4145, n-Neu, Ras-initiated mouse tumor cell lines SH1,1, AC236, AC711, AC816, ACp53^−#1, ACp53^−4782, AC222, AC99, AC260, ACp53^−#19, ACp53^−#16, AC/Balb6.6, AC/Balb14, AC/Balb12 and Myc-initiated mouse tumor cell lines 16MB9a, 13MA1a; and b) human breast tumor cell lines MDA-MB231, MDA-MB435, MDA-MB436, MDA-MB453, MDA-MB-468, SKBR-3, MCF-7, T47D, ZR75; human prostate cancer cell lines LNCaP, PC-3, DU145 and the human ovarian cancer cell line SKOV-3.
(§2) For each cell line, 10^5 cells were seeded in 4×6 well plates. Next day, F16 was added at 3 μM to the medium of 2 of the plates, while the other two were left untreated (control). Cells were counted 3 days and 7 days after initiation of treatment.
(§3) A positive scoring in these Tables represent cells in which a 2-5 and a 10-40 fold reduction in the total number of cells relative to the control untreated cells was observed after 3 and 7 days of culture with F16, respectively.

[2] = test system: NF324-1B; conditions: Neu, breast, F16 3 μM, cells counted after 3 and 7 days
Source text: as §1, §2, §3

[3] = test system: Neu4145; conditions: Neu4145, Neu, breast; F16 3 μM, cells counted after 3 and 7 days
Source text: as §1, §2, §3

[4] = test system: AC711; conditions: AC711, Ras, breast; F16 3 μM, cells counted after 3 and 7 days
Source text: as §1, §2, §3

[5] = test system: NF980; conditions: NF980, Neu, breast; F16 3 μM, cells counted after 3 and 7 days
Source text: as §1, §2, §3

[6] = test system: n-Neu; conditions: breast, F16 3 μM, cells counted after 3 and 7 days
Source text: as §1, §2, §3

[7] = test system: NAF; conditions: Neu, breast, F16 3 μM, cells counted after 3 and 7 days
Source text: as §1, §2, §3

[8] = test system: AC236; conditions: AC236, Ras, breast; F16 3 μM, cells counted after 3 and 7 days
Source text: as §1, §2, §3

[9] = test system: SMF; conditions: Neu, breast, F16 3 μM, cells counted after 3 and 7 days
Source text: as §1, §2, §3

[10] = test system: SH1.1; conditions: SH1.1, Ras, breast; F16 3 μM, cells counted after 3 and 7 days
Source text: as §1, §2, §3

Measured: F16 response

C[n+]1ccc(/C=C/c2c[nH]c3ccccc23)cc1.[I-] [F16]
+: [1] | [2] | [3] | [4] | [5] | [6] | [7] | [8] | [9] | [10]

From patent US20040097408A1, “Compounds regulating cell proliferation and differentiation” (priority 2001, published 2004)
